Results as given in patent US10981894B2, “Melanocortin subtype-2 receptor (MC2R) antagonists and uses thereof” (Crinetics Pharmaceuticals, Inc., priority 2018, dated 2021).

Target: hMC2 receptor (Homo sapiens, UniProt Q01718)
Test: hMC2 membrane binding assay ([125I]ACTH (1-39) Tyr23, SPA)
Set-up: scale not given here
Settings: crude hMC2R membranes from CRE-bla-CHO-K1 cells expressing hMC2 receptor and hMRAP; [125I]ACTH (1-39) Tyr23 0.2 nM; 1.5 hours at room temperature; read-out: MC2R binding potency
Description: Crude membrane fractions are prepared from CRE-bla-CHO-K1 cells stably expressing hMC2 receptor and hMRAP accessory protein (Thermo Fisher). The cells are grown to 85-100% confluence on standard tissue culture dishes in GlutaMax DMEM growth media (Gibco) with following additives: 10% dialyzed FBS (Gemini), 0.1 mM NEAA (Gibco), 25 mM HEPES (Gibco), 5 μg/mL blasticidin (Goldbio), 100 μg/mL zeocin (Invitrogen), 600 μg/mL hygromycin (Goldbio). To prepare membranes, cells are scraped and collected in 1× Dulbecco's phosphate buffered saline (Corning) and then pelleted at 1000 RPM's. The cell pellet is reconstituted in membrane preparation buffer (20 mM HEPES, 6 mM MgCl2 and 1 mM EGTA, protease inhibitor tablets (Pierce) adjusted to pH 7.4), homogenized using a dounce homogenizer, and the resulting membrane fraction is pelleted by centrifugation at 12,000 RPM's. The membrane pellet is resuspended in membrane preparation buffer, snap freezed and stored at −80° C. for later use.
Binding Assay for hMC2 Antagonists Protocol:
The hMC2 membrane binding assay utilizes the following components: radiolabel [^125I]ACTH (1-39) Tyr23 (PerkinElmer), wheatgerm agglutinin coated PVT SPA beads (PerkinElmer), crude hMC2R membranes, and compounds. Briefly hMC2R membranes are incubated with SPA beads in binding assay buffer (50 mM HEPES, 5 mM MgCl2, 1 mM CaCl2, 0.2% BSA, protease inhibitor tablets (Pierce) adjusted to pH7.4) prior to assay initiation. A dose response of compound (the final concentration of compound are typically 0-10,000 nM), SPA membranes, and [^125I]ACTH (1-39) Tyr23 at a final concentration of 0.2 nM is plated in a 96-well assay plate and allowed to incubate 1.5 hours at room temperature. Assay plates are read using a Top Count NXT and Ki values for compounds are determined using a GraphPad Prism 6 non-linear regression analysis.

Chain of hMC2 receptor (Q01718 whole entry): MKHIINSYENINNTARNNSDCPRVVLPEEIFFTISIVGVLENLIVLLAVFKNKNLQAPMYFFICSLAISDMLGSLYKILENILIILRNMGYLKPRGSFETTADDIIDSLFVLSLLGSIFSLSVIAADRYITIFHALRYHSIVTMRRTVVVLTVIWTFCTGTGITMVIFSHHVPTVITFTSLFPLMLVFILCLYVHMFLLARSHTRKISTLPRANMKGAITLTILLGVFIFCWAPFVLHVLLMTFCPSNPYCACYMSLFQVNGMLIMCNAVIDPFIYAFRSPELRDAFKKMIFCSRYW
Chain of hMC2 receptor (Q8TCY5 whole entry partner): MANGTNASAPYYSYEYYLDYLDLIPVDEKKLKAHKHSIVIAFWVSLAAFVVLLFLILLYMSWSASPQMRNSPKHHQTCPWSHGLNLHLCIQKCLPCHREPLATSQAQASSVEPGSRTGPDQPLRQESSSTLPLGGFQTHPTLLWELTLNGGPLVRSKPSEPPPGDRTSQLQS

Ki | Compound
< 10 nM | CCOc1ncccc1-c1ccc(N2CCN(C(=O)c3ccc(Cl)cc3C(F)(F)F)C[C@H]2CC)c(C(=O)NC[C@H]2CCN2)c1 [Compound 1-102, N-{[(2R)-azetidin-2-yl]methyl}-2-[(2R)-4-[4-chloro-2-(trifluoromethyl)benzoyl]-2-ethylpiperazin-1-yl]-5-(2-ethoxypyridin-3-yl)benzamide]
< 10 nM | CCOc1ncccc1-c1ccc(N2CCN(C(=O)n3ccc4cccc(C#N)c43)C[C@H]2CC)c(C(=O)N[C@@H]2CCN(C)C2)n1 [Compound 1-429, 5-[(2R)-4-(7-cyano-1H-indole-1-carbonyl)-2-ethylpiperazin-1-yl]-2′-ethoxy-N-[(3R)-1-methylpyrrolidin-3-yl]-[2,3′-bipyridine]-6-carboxamide]
< 10 nM | CCOc1ccccc1-c1ccc(N2CCN(C(=O)C34CCC(C(F)(F)F)(CC3)C4)C[C@H]2CC)c(C(=O)N[C@@H]2CCN(C)C2)n1 [Compound 1-388, 6-(2-ethoxyphenyl)-3-[(2R)-2-ethyl-4-[4-(trifluoromethyl)bicyclo[2.2.1]heptane-1-carbonyl]piperazin-1-yl]-N-[(3R)-1-methylpyrrolidin-3-yl]pyridine-2-carboxamide]
< 10 nM | CCOc1ncccc1-c1ccc(N2CCN(C(=O)c3ccc(Cl)cc3C(F)(F)F)C[C@H]2CC)c(C(=O)NCCc2ncc[nH]2)c1 [Compound 1-93, 2-[(2R)-4-[4-chloro-2-(trifluoromethyl)benzoyl]-2-ethylpiperazin-1-yl]-5-(2-ethoxypyridin-3-yl)-N-[2-(1H-imidazol-2-yl)ethyl]benzamide]
< 10 nM | CCOc1ncccc1-c1ccc(N2CCN(C(=O)N3CCc4cccc(Cl)c43)C[C@H]2CC)c(C(=O)N[C@@H]2CCNC2)n1 [Compound 1-346, 5-[(2R)-4-(7-chloro-2,3-dihydro-1H-indole-1-carbonyl)-2-ethylpiperazin-1-yl]-2′-ethoxy-N-[(3R)-pyrrolidin-3-yl]-[2,3′-bipyridine]-6-carboxamide]
< 10 nM | CCOc1ncccc1-c1ccc(N2CCN(C(=O)C3(c4ccccc4)CCC3)C[C@H]2CC)c(C(=O)N[C@@H]2CCN(C)C2)n1 [Compound 1-358, 2′-ethoxy-5-[(2R)-2-ethyl-4-(1-phenylcyclobutanecarbonyl)piperazin-1-yl]-N-[(3R)-1-methylpyrrolidin-3-yl]-[2,3′-bipyridine]-6-carboxamide]
< 10 nM | CCOc1ncccc1-c1ccc(N2CCN(C(=O)c3ccc(Cl)cc3C(F)F)C[C@H]2CC)c(C(=O)N[C@@H]2CCNC2)n1 [Compound 1-265, 5-[(2R)-4-[4-chloro-2-(difluoromethyl)benzoyl]-2-ethylpiperazin-1-yl]-2′-ethoxy-N-[(3R)-pyrrolidin-3-yl]-[2,3′-bipyridine]-6-carboxamide]
< 10 nM | CCOc1ccccc1-c1ccc(N2CCN(C(=O)C3(C(F)(F)F)CCCC3)C[C@H]2CC)c(C(=O)N[C@@H]2CCN(C)C2)n1 [Compound 1-341, 6-(2-ethoxyphenyl)-3-[(2R)-2-ethyl-4-[1-(trifluoromethyl)cyclopentanecarbonyl]piperazin-1-yl]-N-[(3R)-1-methylpyrrolidin-3-yl]pyridine-2-carboxamide]
< 10 nM | CCOc1ccccc1-c1ccc(N2CCN(C(=O)c3ccc(Cl)cc3C(F)(F)F)C[C@H]2CC)c(C(=O)N[C@@H]2CCN(C)C2)n1 [Compound 1-206, 3-[(2R)-4-[4-chloro-2-(trifluoromethyl)benzoyl]-2-ethylpiperazin-1-yl]-6-(2-ethoxyphenyl)-N-[(3R)-1-methylpyrrolidin-3-yl]pyridine-2-carboxamide]
< 10 nM | CCOc1ncccc1-c1ccc(N2CCN(C(=O)c3ccc(Cl)cc3C(F)(F)F)C[C@H]2CC)c(C(=O)NCCN2CC(F)C2)n1 [Compound 1-357, 5-[(2R)-4-[4-chloro-2-(trifluoromethyl)benzoyl]-2-ethylpiperazin-1-yl]-2′-ethoxy-N-[2-(3-fluoroazetidin-1-yl)ethyl]-[2,3′-bipyridine]-6-carboxamide]
< 10 nM | CCOc1ncccc1-c1ccc(N2CCN(C(=O)N3CCc4cc(F)cc(Cl)c43)C[C@H]2CC)c(C(=O)NC2CN(C)C2)n1 [Compound 1-420, 5-[(2R)-4-(7-chloro-5-fluoro-2,3-dihydro-1H-indole-1-carbonyl)-2-ethylpiperazin-1-yl]-2′-ethoxy-N-(1-methylazetidin-3-yl)-[2,3′-bipyridine]-6-carboxamide]
< 10 nM | CCOc1ccc(C(=O)N2CCN(c3ccc(-c4ccccc4OCC)nc3C(=O)NC3CN(C)C3)[C@H](CC)C2)c(C(F)(F)F)n1 [Compound 1-237, 3-[(2R)-4-[6-ethoxy-2-(trifluoromethyl)pyridine-3-carbonyl]-2-ethylpiperazin-1-yl]-6-(2-ethoxyphenyl)-N-(1-methylazetidin-3-yl)pyridine-2-carboxamide]
< 10 nM | CCOc1ncccc1-c1ccc(N2CCN(C(=O)N3CCc4cc(F)cc(C#N)c43)C[C@H]2CC)c(C(=O)N[C@H]2CCN(C)C2)n1 [Compound 1-423, 5-[(2R)-4-(7-cyano-5-fluoro-2,3-dihydro-1H-indole-1-carbonyl)-2-ethylpiperazin-1-yl]-2′-ethoxy-N-[(3S)-1-methylpyrrolidin-3-yl]-[2,3′-bipyridine]-6-carboxamide]
< 10 nM | CCOc1ccccc1-c1ccc(N2CCN(C(=O)c3ccc(F)cc3C(F)F)C[C@H]2CC)c(C(=O)N[C@@H]2CCN(C)C2)n1 [Compound 1-293, 3-[(2R)-4-[2-(difluoromethyl)-4-fluorobenzoyl]-2-ethylpiperazin-1-yl]-6-(2-ethoxyphenyl)-N-[(3R)-1-methylpyrrolidin-3-yl]pyridine-2-carboxamide]
< 10 nM | CCOc1ncccc1-c1ccc(N2CCN(C(=O)c3ccc(Cl)cc3C(F)(F)F)C[C@H]2CC)c(C(=O)N[C@H]2CNC[C@H]2F)n1 [Compound 1-275, 5-[(2R)-4-[4-chloro-2-(trifluoromethyl)benzoyl]-2-ethylpiperazin-1-yl]-2′-ethoxy-N-[(3S,4R)-4-fluoropyrrolidin-3-yl]-[2,3′-bipyridine]-6-carboxamide]
10 to 100 nM | CC[C@@H]1CN(C(=O)c2ccc(C(F)(F)F)cc2Cl)CCN1c1ccc(-c2ccccc2COC)cc1C(=O)NCCN [Compound 1-16, (R)-N-(2-aminoethyl)-4-(4-(2-chloro-4-(trifluoromethyl)benzoyl)-2-ethylpiperazin-1-yl)-2′-(methoxymethyl)-[1,1′-biphenyl]-3-carboxamide]
< 10 nM | CCOc1ncccc1-c1ccc(N2CCN(C(=O)c3ccc(Cl)cc3C(F)(F)F)C[C@H]2CC)c(C(=O)N[C@@H]2CCN(C)C2)n1 [Compound 1-152, 5-[(2R)-4-[4-chloro-2-(trifluoromethyl)benzoyl]-2-ethylpiperazin-1-yl]-2′-ethoxy-N-[(3R)-1-methylpyrrolidin-3-yl]-[2,3′-bipyridine]-6-carboxamide]
< 10 nM | CCOc1ncccc1-c1ccc(N2CCN(C(=O)n3ccc4cc(F)cc(Cl)c43)C[C@H]2CC)c(C(=O)N[C@@H]2CCN(C)C2)n1 [Compound 1-425, 5-[(2R)-4-(7-chloro-5-fluoro-1H-indole-1-carbonyl)-2-ethylpiperazin-1-yl]-2′-ethoxy-N-[(3R)-1-methylpyrrolidin-3-yl]-[2,3′-bipyridine]-6-carboxamide]
< 10 nM | CCOc1ncccc1-c1ccc(N2CCN(C(=O)C3(C(F)(F)F)CCCC3)C[C@H]2CC)c(C(=O)N[C@H]2CCNC2)n1 [Compound 1-321, 2′-ethoxy-5-[(2R)-2-ethyl-4-[1-(trifluoromethyl)cyclopentanecarbonyl]piperazin-1-yl]-N-[(3S)-pyrrolidin-3-yl]-[2,3′-bipyridine]-6-carboxamide]
< 10 nM | CCOc1ncccc1-c1ccc(N2CCN(C(=O)N3CCC[C@H]3C(F)(F)F)C[C@H]2CC)c(C(=O)NC[C@@H]2CCN2C)n1 [Compound 1-391, 2′-ethoxy-5-[(2R)-2-ethyl-4-[(2S)-2-(trifluoromethyl)pyrrolidine-1-carbonyl]piperazin-1-yl]-N-{[(2S)-1-methylazetidin-2-yl]methyl}-[2,3′-bipyridine]-6-carboxamide]
< 10 nM | CCOc1ncccc1-c1ccc(N2CCN(C(=O)c3ccc(OC)nc3C(F)(F)F)C[C@H]2CC)c(C(=O)N[C@@H]2CNC[C@H]2F)n1 [Compound 1-289, 2′-ethoxy-5-[(2R)-2-ethyl-4-[6-methoxy-2-(trifluoromethyl)pyridine-3-carbonyl]piperazin-1-yl]-N-[(3R,4R)-4-fluoropyrrolidin-3-yl]-[2,3′-bipyridine]-6-carboxamide]
< 10 nM | CCOc1ccccc1-c1ccc(N2CCN(C(=O)N3CCc4cc(F)cc(Cl)c43)C[C@H]2CC)c(C(=O)N[C@H]2CCN(C)C2)n1 [Compound 1-421, 3-[(2R)-4-(7-chloro-5-fluoro-2,3-dihydro-1H-indole-1-carbonyl)-2-ethylpiperazin-1-yl]-6-(2-ethoxyphenyl)-N-[(3S)-1-methylpyrrolidin-3-yl]pyridine-2-carboxamide]
